Measured values reported in US12520844B2 (Bayer Aktiengesellschaft, priority 2020, dated 2026).

Assay: Measurement of Log P values by HPLC on reversed phase columns (EEC directive 79/831 Annex V.A8)
Format: physicochemical
Description: Measurement of Log P values as provided herein was performed according to EEC directive 79/831 Annex V.A8 by HPLC (High Performance Liquid Chromatography) on reversed phase columns with the following methods: • ^[a] Log P value is determined by measurement of LC-UV, in an acidic range, with 0.1% formic acid in water and acetonitrile as eluent (linear gradient from 10% acetonitrile to 95% acetonitrile). • ^[b] Log P value is determined by measurement of LC-UV, in a neutral range, with 0.001 molar ammonium acetate solution in water and acetonitrile as eluent (linear gradient from 10% acetonitrile to 95% acetonitrile). • ^[c] Log P value is determined by measurement of LC-UV, in an acidic range, with 0.1% phosphoric acid and acetonitrile as eluent (linear gradient from 10% acetonitrile to 95% acetonitrile).
If more than one Log P value is available within the same method, all the values are given and separated by “+”.
Calibration was done with straight-chain alkan2-ones (with 3 to 16 carbon atoms) with known Log P values (measurement of Log P values using retention times with linear interpolation between successive alkanones). Lambda-max-values were determined using UV-spectra from 200 nm to 400 nm and the peak values of the chromatographic signals

SMILES | LogP | chromatographic logP
Cc1ncc(Oc2cccc(C3CC3)c2F)c(C(=O)NC2CCC(C)c3ccccc32)n1 (mixture of isomers) [Compound I-065] | 4.40^[a] | –
Cc1ncc(Oc2cccc(C3CC3)c2F)c(C(=O)NC2CC23CCc2cc(Br)ccc23)n1 (mixture of isomers) [Compound I-091] | 4.73^[a] | –
CCOC(=O)c1nc(C)nnc1Oc1cccc(C(F)(F)F)c1 [Compound 1-02, ethyl 3-methyl-6-[3-(trifluoromethyl)phenoxy]-1,2,4-triazine-5-carboxylate] | – | 3.18
CCOC(=O)c1nc(C2CC2)nnc1Oc1cccc(C(F)(F)F)c1 [Compound 1-05] | 3.95^[a] | –
CCOC(=O)c1nc(C2CC2)nnc1Oc1cccc(Cl)c1F [Compound 1-06] | 3.86^[a] | –
CCOC(=O)c1nc(C2CC2)nnc1Oc1cccc(Br)c1F [Compound 1-07] | 3.93^[a] | –
CCOC(=O)c1nc(C2CC2)nnc1Oc1cccc(C2CC2)c1F [Compound 1-08] | 4.19^[a] | –
CCOC(=O)c1nc(C2CC2)nnc1Oc1cccc(C)c1F [Compound 1-09] | 3.78^[a] | –
CCOC(=O)c1nc(C2CC2)nnc1Oc1cccc(Br)c1 [Compound 1-10] | 3.94^[a] | –
C#Cc1cccc(Oc2nnc(C3CC3)nc2C(=O)OCC)c1 [Compound 1-11] | 3.59^[a] | –
CCOC(=O)c1nc(C2CC2)nnc1Oc1cccc(OC)c1 [Compound 1-12] | 3.37^[a] | –
Cc1ccc(C(F)(F)CNC(=O)c2nc(C)ncc2Oc2cccc(C(F)(F)F)c2)c(C)c1 [Compound I-003] | 4.32^[a] | –
Cc1nnc(Oc2cccc(C(F)(F)F)c2)c(C(=O)NCC(F)(F)c2ccc(Cl)cc2)n1 [Compound I-006] | 3.85^[a] | –
Cc1nnc(Oc2cccc(C(F)(F)F)c2)c(C(=O)NCC(F)(F)c2ccc(Cl)cc2Cl)n1 [Compound I-007] | 4.20^[a] | –
COc1ncc(Oc2cccc(C(F)(F)F)c2)c(C(=O)NCC(F)(F)c2ccc(C)cc2C)n1 [Compound I-009] | 4.46^[a] | –
CCc1ncc(Oc2cccc(C(F)(F)F)c2)c(C(=O)NCC(F)(F)c2ccc(C)cc2C)n1 [Compound I-011] | 4.89^[a] | –
CSc1ncc(Oc2cccc(C(F)(F)F)c2)c(C(=O)NCC(F)(F)c2ccc(C)cc2C)n1 [Compound I-012] | 4.97^[a] | –
Cc1ccc(C(F)(F)CNC(=O)c2nc(C)ncc2Oc2cccc(Cl)c2)c(C)c1 [Compound I-013] | 4.30^[a] | –
Cc1ccc(C(F)(F)CNC(=O)c2nc(C3CC3)ncc2Oc2cccc(Cl)c2)c(C)c1 [Compound I-014] | 5.00^[a] | –
Cc1ncc(Oc2cccc(C3CC3)c2F)c(C(=O)NCCc2ncc(Cl)cn2)n1 [Compound I-016] | 2.72^[a] | –
COc1cccc(Oc2cnc(C)nc2C(=O)NCC(F)(F)c2ccc(C)cc2C)c1 [Compound I-019] | 3.76^[a] | –
Cc1nnc(Oc2cccc(C3CC3)c2)c(C(=O)NCC(F)(F)c2ccc(Cl)cc2)n1 [Compound I-028] | 4.01^[a] | –
Cc1cccc(Oc2cnc(C)nc2C(=O)NCC(F)(F)c2ccc(C)cc2C)c1 [Compound I-033] | 4.06^[a] | –
CON(CCc1ccc(Cl)cc1Cl)C(=O)c1nc(C)ncc1Oc1cccc(C2CC2)c1F [Compound I-034] | 4.91^[a] | –
Cc1ccc(C(F)(F)CNC(=O)c2nc(C)ncc2Oc2cccc(Cl)c2F)c(C)c1 [Compound I-039] | 4.22^[a] | –
Cc1ccc(/C(F)=C\NC(=O)c2nc(C3CC3)nnc2Oc2cccc(C3CC3)c2F)c(C)c1 [Compound I-040] | 5.49^[a] | –
Cc1ncc(Oc2cccc(C3CC3)c2F)c(C(=O)NCC(F)c2ccc(C)c(C)c2)n1 (stereo not shown) [Compound I-043] | 4.22^[a] | –
Cc1ncc(Oc2cccc(C3CC3)c2F)c(C(=O)NC2CCCc3ccc(Br)cc32)n1 (stereo not shown) [Compound I-045] | 4.55^[a] | –
Cc1ncc(Oc2cccc(C3CC3)c2F)c(C(=O)NC2CCOc3ccccc32)n1 (stereo not shown) [Compound I-046] | 3.54^[a] | –

Further lines, results first:

LogP | chromatographic logP | SMILES
4.34^[a] | – | Cc1nnc(Oc2cccc(C(F)(F)F)c2)c(C(=O)NCC(Cl)c2ccc(Cl)cc2Cl)n1 (racemic) [Compound I-020]
3.62^[a] | – | Cc1ncc(Oc2cccc(C3CC3)c2F)c(C(=O)NC2CCOc3ccc(F)cc32)n1 (racemic) [Compound I-030]
3.98^[a] | – | Cc1ncc(Oc2cccc(C3CC3)c2F)c(C(=O)NC2CCSc3ccc(F)cc32)n1 (racemic) [Compound I-125]
4.38^[a] | – | Cc1ncc(Oc2cccc(C3CC3)c2F)c(C(=O)NCC(F)c2ccc(Cl)c(Cl)c2)n1 (racemic) [Compound I-127]
– | 1.69 | Cc1ncc(Oc2cccc(C(F)(F)F)c2)c(C(=O)O)n1 [Compound 1-01, 2-methyl-5-[3-(trifluoromethyl)phenoxy]pyrimidine-4-carboxylic Acid]
2.49^[a] | – | O=C(O)c1nc(C2CC2)ncc1Oc1cccc(C(F)(F)F)c1 [Compound 1-03]
1.96^[a] | – | COc1ncc(Oc2cccc(C(F)(F)F)c2)c(C(=O)O)n1 [Compound 1-04]
1.52^[a] | – | O=C(O)c1nc(F)ncc1Oc1cccc(C(F)(F)F)c1 [Compound 1-13]
3.77^[a] | – | CCc1ncc(Cl)c(C(=O)NCC(F)(F)c2ccc(C)cc2C)n1 [Compound 3-01]
4.08^[a] | – | Cc1ccc(C(F)(F)CNC(=O)c2nc(C3CC3)ncc2Br)c(C)c1 [Compound 3-02]
4.05^[a] | – | CSc1ncc(Br)c(C(=O)NCC(F)(F)c2ccc(C)cc2C)n1 [Compound 3-03]
– | 3.25 | Cc1ccc(C(F)(F)CNC(=O)c2nc(C)ncc2Br)c(C)c1 [Compound 3-04, 5-bromo-N-[2-(2,4-dimethylphenyl)-2,2-difluoroethyl]-2-methylpyrimidine-4-carboxamide]
– | 4.04 | Cc1ncc(Oc2cccc(C(F)(F)F)c2)c(C(=O)NCC(F)(F)c2ccc(Cl)cc2)n1 [Compound I-002, N-[2-(4-chlorophenyl)-2,2-difluoroethyl]-2-methyl-5-[3-(trifluoromethyl)phenoxy]pyrimidine-4-carboxamide]
4.49^[a] | – | Cc1ncc(Oc2cccc(C(F)(F)F)c2)c(C(=O)NCC(F)(F)c2ccc(Br)cc2Cl)n1 [Compound I-004]
– | 4.26 | Cc1nnc(Oc2cccc(C(F)(F)F)c2)c(C(=O)NCC(F)(F)c2ccc(Br)cc2Cl)n1 [Compound I-005, N-[2-(4-bromo-2-chlorophenyl)-2,2-difluoroethyl]-3-methyl-6-[3-(trifluoromethyl)phenoxy]-1,2,4-triazine-5-carboxamide]
4.37^[a] | – | Cc1ccc(C(F)(F)CNC(=O)c2nc(C)ncc2Oc2cccc(C(F)(F)F)c2)c(Cl)c1 [Compound I-008]
– | 4.38 | Cc1ccc(C(F)(F)CNC(=O)c2nc(C)ncc2Oc2cccc(C3CC3)c2)c(C)c1 [Compound I-015, 5-(3-cyclopropylphenoxy)-N-[2-(2,4-dimethylphenyl)-2,2-difluoroethyl]-2-methylpyrimidine-4-carboxamide]
3.62^[a] | – | Cc1ncc(Oc2cccc(C3CC3)c2F)c(C(=O)N[C@H]2CCOc3ccc(F)cc32)n1 [Compound I-017]

LogP | chromatographic logP | SMILES
3.31^[a] | – | Cc1ncc(Oc2cccc(C3CC3)c2F)c(C(=O)NCCc2ccc(C(F)(F)F)cn2)n1 [Compound I-018]
4.19^[a] | – | Cc1ccc(C(F)(F)CNC(=O)c2nc(C)nnc2Oc2cccc(C3CC3)c2)c(Cl)c1 [Compound I-021]
3.40^[a] | – | CC(=O)c1cccc(Oc2cnc(C)nc2C(=O)NCC(F)(F)c2ccc(C)cc2C)c1 [Compound I-022]
4.15^[a] | – | Cc1ccc(C(F)(F)CNC(=O)c2nc(C)ncc2Oc2ccc3ccsc3c2)c(C)c1 [Compound I-023]
4.66^[a] | – | Cc1ccc(C(F)(F)CNC(=O)c2nc(C3CC3)nnc2Oc2cccc(C(F)(F)F)c2)cc1C [Compound I-024]
4.66^[a] | – | Cc1ccc(C(F)(F)CNC(=O)c2nc(C3CC3)nnc2Oc2cccc(Br)c2F)c(C)c1 [Compound I-025]
4.02^[a] | – | Cc1ccc(C(F)(F)CNC(=O)c2nc(C)ncc2Oc2cc(F)c(F)cc2F)c(C)c1 [Compound I-026]
5.36^[a] | – | Cc1ccc(C(F)=CNC(=O)c2nc(C3CC3)nnc2Oc2cccc(Br)c2F)c(C)c1 [Compound I-027]
3.21^[a] | – | Cc1ncc(Oc2cccc(C3CC3)c2F)c(C(=O)NCCc2ccc3[nH]ccc3c2)n1 [Compound I-029]
4.19^[a] | – | Cc1nnc(Oc2cccc(C3CC3)c2)c(C(=O)NCC(F)(F)c2ccc(C)c(C)c2)n1 [Compound I-031]
3.09^[a] | – | Cc1ncc(Oc2cccc(C3CC3)c2F)c(C(=O)NCCc2cnc(C(F)(F)F)nc2)n1 [Compound I-032]
3.88^[a] | – | Cc1ccc(C(F)(F)CNC(=O)c2nc(C)ncc2Oc2cccc(N(C)C)c2)c(C)c1 [Compound I-035]
4.81^[a] | – | Cc1ccc(C(F)(F)CNC(=O)c2nc(C3CC3)nnc2Oc2cccc(C3CC3)c2F)c(C)c1 [Compound I-037]
4.59^[a] | – | C#Cc1cccc(Oc2nnc(C3CC3)nc2C(=O)N/C=C(\F)c2ccc(C)cc2C)c1 [Compound I-038]
3.52^[a] | – | Cc1ncc(Oc2cccc(C3CC3)c2F)c(C(=O)NCCc2ccc(C)o2)n1 [Compound I-041]
3.23^[a] | – | Cc1ncc(Oc2cccc(C3CC3)c2F)c(C(=O)NCCc2cccc3[nH]ccc23)n1 [Compound I-042]
3.98^[a] | – | Cc1ccc(C(F)(F)CNC(=O)c2nc(C)ncc2Oc2cccc(OC(F)F)c2)c(C)c1 [Compound I-044]
